Here are results for 2 compounds from US10266545B2, “Coumarin derivative as antiviral agent, pharmaceutical composition thereof, its preparation and use” (I-NOVA MEDICINSKA ISTRAZIVANJA D.O.O., priority 2016, dated 2019).

Structures are written as SMILES. Bounds are passed on as bounds.

One test concerns HIV-1. In words: Viral load by FDA approved Real-Time PCR test (Abbott m2000) in HIV-1 infected MT-4 cells. In kind it is cell-based, HIV-1 subtype B. The conditions noted are these: acute infected MT-4 cells with HIV-1, treated at MNC 0.01 mM. The method, then:
The preparation of the MT-4 cell line and HIV-1 culture was the same as in previously described studies. Monitoring of the amount of virions during anti-viral analysis by measuring of the viral load with FDA approved test was performed as follows: The study was conducted with Real-Time polymerase chain reaction (PCR) test for in vitro quantitative assay of HIV-I with automated system Abbott Molecular's m2000, approved by the United States (US) Food and Drug Administration (FDA), and with the CE mark. Extraction of viral nucleic acid was carried out with an automatic extractor with magnetic particles—Abbott Molecular's m2000sp and Real-Time amplification; detection was performed with m2000rt. The sensitivity and range of the test was 40 (1.6 log copies/ml) to 10,000,000 (7.0 log copies/ml) copies/ml by the extraction of 1 ml of sample. The target region of the viral genome was a fragment of the integrase gene pol. The test was designed to detect HIV-1 subtypes A-H, group […] and N. In every test sample, an internal control was placed.
The study included three controls: negative, low positive, and high positive with the following result: • (i) negative control—result negative (not detected); • (ii) low positive control—result 938 copies/ml (2.97 log) control levels; and • (iii) high positive control—result 92,927 copies/ml (4.97 log) control levels. […]
Background: In qPCR the cycle at which signal appears reflects the starting amount.

The test system of test [1] is replication of HIV-1 in the infected MT-4 cells (endogenous RT). Put plainly: Endogenous RT activity in culture fluid of HIV-1 infected MT-4 cells (HS-Lenti RT activity kit). The conditions noted are these: for inhibition at 0.1 µM: 0.0001 mM; for inhibition at 5 µM: 0.005 mM; for inhibition at 10 µM: 0.01 mM. In kind it is cell-based, HIV-1 subtype B. The procedure:
Furthermore, antiviral activity of compound 1 was studied on reverse transcriptase (RT) activity to elucidate potential mechanism of its antiviral action. This was done by using MT-4 cell line which […] with HIV-1. Source of HIV-1 culture fluid was chronically infected and producing HIV-1 subtype B cell line H9/HTLV III B.
Reverse transcriptase (RT) activity was determined: • (a) in the culture fluid of infected HIV-1 MT-4 cells at 72 hours after their infection (viral control); • (b) in the culture fluid of non-infected with HIV-1 cells at 72 hours and culturing without the addition of any substance (cell control); and • (c) in the culture fluid infected with HIV-1 MT-4 cells at 72 hours after infecting them, in which the desired concentration of the test compound 1 or the control compound 2 to the growth medium was added.
RT activity was determined according to the instructions of the producer. Separately was reported RT activity of standard recombinant reverse transcriptase (rRT), available in every kit. It was prepared 12-fold dilutions of the standard rRT. The manufacturer provides data on the amount of rRT in pg/well and pg/ml for each 12-fold dilution. The method used represents colorimetric method for non-radioactive determination of RT activity. It includes two stages: • (1) the synthesis of reverse transcript at the 3- or 24-hours incubation at 33° C. (which was determined experimentally); and • (2) quantitative determination of the resulting product.
In the synthesis of DNA using bromine deoxyuridine triphosphate (Brd UTP), which enter into the composition of the reaction mixture. It is included in the structure of the matrix/primer making up the DNA chain. Determination of incorporated Brd UTP was done by tracer-antibody Brd UTP, conjugated to the enzyme alkaline phosphatase. Followed colorimetrically determining the absorbance at A405 nm, which is proportional to the RT activity in the sample. According to the manufacturer, RT activity was considered positive when A405 values for the sample exceeded at least 2 times the values of A405 for negative control. Otherwise the sample was reported as such lacking RT activity, i.e. negative. The test was done by comparing the RT activity in the virus controls (100%) reported with viral RT activity in the wells treated with the test substance in the different concentrations in strict absence of RT activity in control cells. Percent inhibition of replication using the RT test was expressed as the difference between 100% (positive viral control without inhibitor) and % reported RT activity in the wells treated with the inhibitor (compounds 1 or 2) at various concentrations.
The measurement of RT activity is a widespread method for the quantitative determination of retroviruses replication. In the experimental set-up, primarily endogenous activity in supernatants was measured, i.e. in the culture fluid of virus infected cells and treated/untreated with inhibitor at 72 hours after cultivation.
For the control, commonly used substance with proven antiviral activity was employed; in our case, we used Kivexa, which contains 600 mg Abacavir and 300 mg of Lamivudine, which is applied in clinical practice as nucleoside inhibitor of RT. In the presence of RT inhibition in the test, it is concluded that not only the replication of the virus is inhibited, but also probably the target of the inhibitory effect is RT itself. To confirm this conclusion, it is necessary that percentage (%) of inhibition of the RT coincides with the % inhibition in the microtiter MTT assay. […] Reaction mixture supplemented with inhibitor was prepared at desired concentration for the assay, and then, to the mixture, recombinant RT was added with a known activity and concentration. After incubation, we determined whether the activity of the enzyme shall be amended (inhibited) by action of the compounds 1 or 2. […]

Where [2] appears, read: Human immunodeficiency virus 1, MT4, endogenous RT in culture liquid.

What is called inhibition is the relative decrease from the control value, in per cent. Read a high inhibition as a response far below the control. Consider `O=c1oc2cc(O)c(O)cc2c(O)c1-c1coc2c1c(=O)oc1cc(O)c(O)cc12` [Compound 2, 7,8-dihydroxy-3-(4,6,7-trihydroxy-2-oxo-2H-chromen-3-yl)-4H-furo[3,2-c]chromen-4-one, reference compound], for which, in the test on HIV-1, the “Viral load (log)” value was “(3.09 log)”. Besides, in test [1] (setting [2]), the inhibition at 0.1 µM amounted to 0%, 5 µM produced 51% inhibition and the inhibition at 10 µM came out at 56.3%. Further, in test [1] (Human immunodeficiency virus 1, MT4, endogenous RT in culture liquid, 0.001 mM), the inhibition at 1 µM was found to be 25.7%.
On to `O=c1oc2cc(O)cc(O)c2c(O)c1-c1coc2c1c(=O)oc1cc(O)cc(O)c12` [Compound 1, 7,9-dihydroxy-3-(4,5,7-trihydroxy-2-oxo-2H-chromene-3-yl)-4H-furo[3,2-c]chromen-4-one], for which the “Viral load (log)” value in the test with HIV-1 was “(3.01 log)”. Further, in test [1] (Human immunodeficiency virus 1, MT4, endogenous RT in culture liquid, 0.000001 mM), the inhibition at 0.001 µM turned out to be 1.3%. The compound further had an inhibition at 0.01 µM in test [1] (Human immunodeficiency virus 1, MT4, endogenous RT in culture liquid, 0.00001 mM) of 50.7%. Moreover, in test [1] (setting [2]), testing at 0.1 µM gave an inhibition of 55%, testing at 5 µM gave an inhibition of 76.6% and at 10 µM the inhibition was 89%. Also, the “inhibition of HIV-1 infectivity in MT-4 cells” value in test [1] (Table 4) is reported as greater than 89%.
